These results are taken from US9522914B2, “Azole derivative” (TAISHO PHARMACEUTICAL CO., LTD, priority 2011, dated 2016).

The IC50 is the concentration that inhibits the measured activity by half. Lower therefore signals greater potency.

In the experiment the target is Human V1b receptor (Homo sapiens (Human), UniProt P47901). Kind of experiment: Binding Test for V1b Receptor ([3H]AVP, crude membrane preparation of 293FT cells). The note with it: inhibition of [3H]AVP binding (0.4 to 1 nmol/L), room temperature, 60 minutes. The gist of the method: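 Crude membranes from 293FT cells transiently expressing human V1b, incubated with [3H]AVP (0.4 to 1 nmol/L) and compound (0.01 nmol/L–1 μmol/L final) in Tris pH 7.4 with MgCl2 and 0.1% BSA, 60 min at room temperature. Bound label collected by filtration. Nonspecific binding defined with unlabeled AVP; IC50 from dose-response curve.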
Human V1b receptor, sequence (P47901 whole entry): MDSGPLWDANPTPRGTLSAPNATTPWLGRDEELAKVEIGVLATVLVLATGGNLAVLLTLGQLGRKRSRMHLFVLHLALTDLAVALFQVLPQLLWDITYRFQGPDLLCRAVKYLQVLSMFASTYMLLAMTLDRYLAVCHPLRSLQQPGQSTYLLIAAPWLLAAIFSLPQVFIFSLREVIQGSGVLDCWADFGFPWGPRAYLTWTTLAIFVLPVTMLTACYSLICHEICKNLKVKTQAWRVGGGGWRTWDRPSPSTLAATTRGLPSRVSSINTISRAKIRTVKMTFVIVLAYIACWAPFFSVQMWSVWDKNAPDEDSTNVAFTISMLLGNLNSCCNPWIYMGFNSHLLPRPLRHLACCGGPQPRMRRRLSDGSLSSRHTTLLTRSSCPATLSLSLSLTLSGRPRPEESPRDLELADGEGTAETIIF

For `CC(C)NC(=O)Cc1cn(-c2ccc(CCN3CC4(COC4)C3)cc2)nc1-c1cccc(Cl)c1` [Example C-04, 2-[3-(3-chlorophenyl)-1-{4-[2-(2-oxa-6-azaspiro[3.3]hept-6-yl)ethyl]phenyl}-1H-pyrazol-4-yl]-N-(propan-2-yl)acetamide], the IC50 fell in the range of 10 to 100 nM.
As to `CC(C)NC(=O)Cc1cc(-c2ccc(CCN3CCOCC3)cc2)nn1-c1cccc(Cl)c1` [Example C-05, 2-[1-(3-chlorophenyl)-3-{4-[2-(morpholin-4-yl)ethyl]phenyl}-1H-pyrazol-5-yl]-N-(propan-2-yl)acetamide], the IC50 stood at 21 nM. This lies in the double-digit nanomolar range.
With `CC(C)NC(=O)Cn1nc(-c2ccc(CCN3CCCCC3)cc2)cc1-c1cccc(Cl)c1` [Example C-06, 2-[5-(3-chlorophenyl)-3-{4-[2-(piperidin-1-yl)ethyl]phenyl}-1H-pyrazol-1-yl]-N-(propan-2-yl)acetamide], the IC50 was 17 nM.
As for `CC(C)NC(=O)Cn1nc(-c2ccc(CCN3CCOCC3)cc2)cc1-c1cccc(Cl)c1` [Example C-07, 2-[5-(3-chlorophenyl)-3-{4-[2-(morpholin-4-yl)ethyl]phenyl}-1H-pyrazol-1-yl]-N-(propan-2-yl)acetamide], the IC50 is 7.1 nM.
In turn, `CC(C)NC(=O)Cc1nc(-c2ccc(CCN3CCCCC3)cc2)oc1-c1cccc(Cl)c1` [Example C-08, 2-[5-(3-chlorophenyl)-2-{4-[2-(piperidin-1-yl)ethyl]phenyl}-1,3-oxazol-4-yl]-N-(propan-2-yl)acetamide] registered an IC50 of 10 to 100 nM.
`CC(C)NC(=O)Cc1nc(-c2ccc(CCN3CCOCC3)cc2)oc1-c1cccc(Cl)c1` [Example C-09, 2-[5-(3-chlorophenyl)-2-{4-[2-(morpholin-4-yl)ethyl]phenyl}-1,3-oxazol-4-yl]-N-(propan-2-yl)acetamide] came in with an IC50 of 27 nM.
With `CC(C)NC(=O)Cc1oc(-c2ccc(CCN3CCCCC3)cc2)nc1-c1cccc(Cl)c1` [Example C-10, 2-[4-(3-chlorophenyl)-2-{4-[2-(piperidin-1-yl)ethyl]phenyl}-1,3-oxazol-5-yl]-N-(propan-2-yl)acetamide], the IC50 stood at 6.5 nM.
Compound `CC(C)NC(=O)Cc1oc(-c2ccc(CCN3CCOCC3)cc2)nc1-c1cccc(Cl)c1` [Example C-11, 2-[4-(3-chlorophenyl)-2-{4-[2-(morpholin-4-yl)ethyl]phenyl}-1,3-oxazol-5-yl]-N-(propan-2-yl)acetamide] showed a concentration for half-maximal inhibition (IC50) of 3.9 nM.
Compound `CC(C)NC(=O)Cc1nc(-c2ccc(CCN3CCCCC3)cc2)sc1-c1cccc(Cl)c1` [Example C-13, 2-[5-(3-chlorophenyl)-2-{4-[2-(piperidin-1-yl)ethyl]phenyl}-1,3-thiazol-4-yl]-N-(propan-2-yl)acetamide] had an IC50 of 16 nM.
In the case of `CC(C)NC(=O)Cc1nc(-c2ccc(CCN3CCOCC3)cc2)sc1-c1cccc(Cl)c1` [Example C-14, 2-[5-(3-chlorophenyl)-2-{4-[2-(morpholin-4-yl)ethyl]phenyl}-1,3-thiazol-4-yl]-N-(propan-2-yl)acetamide], the IC50 stood at 14 nM. This IC50 and that of the compound before are within 1.5-fold of each other.
Turning to `CC(C)NC(=O)Cc1nc(-c2ccc(CCN3CC4(COC4)C3)cc2)sc1-c1cccc(Cl)c1` [Example C-15, 2-[5-(3-chlorophenyl)-2-{4-[2-(2-oxa-6-azaspiro[3.3]hept-6-yl)ethyl]phenyl}-1,3-thiazol-4-yl]-N-(propan-2-yl)acetamide], the IC50 was found to be 22 nM. Against the preceding compound, the IC50 is about 1.6-fold higher.
Next, `CC(C)NC(=O)Cc1nc(-c2cccc(CCN3CCCCC3)c2)sc1-c1cccc(Cl)c1` [Example C-16, 2-[5-(3-chlorophenyl)-2-{3-[2-(piperidin-1-yl)ethyl]phenyl}-1,3-thiazol-4-yl]-N-(propan-2-yl)acetamide]: 100 to 1000 nM; `CC(C)NC(=O)Cc1nc(-c2cccc(CCN3CCOCC3)c2)sc1-c1cccc(Cl)c1` [Example C-17, 2-[5-(3-chlorophenyl)-2-{3-[2-(morpholin-4-yl)ethyl]phenyl}-1,3-thiazol-4-yl]-N-(propan-2-yl)acetamide]: 100 to 1000 nM.
Next, `CC(C)NC(=O)CC1=C(c2cccc(Cl)c2)C(=O)N(c2ccc(CCN3CCOCC3)cc2)C1=O` [Example C-18, 2-[4-(3-chlorophenyl)-1-{4-[2-(morpholin-4-yl)ethyl]phenyl}-2,5-dioxo-2,5-dihydro-1H-pyrrol-3-yl]-N-(propan-2-yl)acetamide]: 9 nM; `CC(C)NC(=O)Cn1c(-c2cccc(Cl)c2)cn(-c2ccc(CCN3CCOCC3)cc2)c1=O` [Example C-19, 2-[5-(3-chlorophenyl)-3-{4-[2-(morpholin-4-yl)ethyl]phenyl}-2-oxo-2,3-dihydro-1H-imidazol-1-yl]-N-(propan-2-yl)acetamide]: 2.2 nM.
In the case of `Cc1c(-c2cccc(Cl)c2)n(CC(=O)NC(C)C)c(=O)n1-c1ccc(CCN2CCOCC2)cc1` [Example C-20, 2-[5-(3-chlorophenyl)-4-methyl-3-{4-[2-(morpholin-4-yl)ethyl]phenyl}-2-oxo-2,3-dihydro-1H-imidazol-1-yl]-N-(propan-2-yl)acetamide], the IC50 is 10 to 100 nM.
Regarding `CC(C)NC(=O)Cc1nc(-c2ccc(CCN3CCOCC3)cc2)nn1-c1cccc(Cl)c1` [Example C-21, 2-[1-(3-chlorophenyl)-3-{4-[2-(morpholin-4-yl)ethyl]phenyl}-1H-1,2,4-triazol-5-yl]-N-(propan-2-yl)acetamide], the IC50 worked out at 14 nM. In other words, the double-digit nanomolar range.
Next, `CC(C)NC(=O)Cc1nc(-c2ccc(CCN3C4CCC3COC4)cc2)nn1-c1cccc(Cl)c1` [Example C-22, 2-[1-(3-chlorophenyl)-3-{4-[2-(3-oxa-8-azabicyclo[3.2.1]oct-8-yl)ethyl]phenyl}-1H-1,2,4-triazol-5-yl]-N-(propan-2-yl)acetamide]: 8.8 nM; `CC(C)NC(=O)Cc1nn(-c2ccc(CCN3C4CCC3COC4)cn2)c(=O)n1-c1cccc(Cl)c1` [Example D-02, 2-[4-(3-chlorophenyl)-1-{5-[2-(3-oxa-8-azabicyclo[3.2.1]oct-8-yl)ethyl]pyridin-2-yl}-5-oxo-4,5-dihydro-1H-1,2,4-triazol-3-yl]-N-(propan-2-yl)acetamide]: 10 to 100 nM; `CC(C)NC(=O)Cc1nn(-c2ccc(CCN3C4CCC3COC4)cc2)c(=O)n1-c1cccc(Cl)c1` [Example D-03, 2-[4-(3-chlorophenyl)-1-{4-[2-(3-oxa-8-azabicyclo[3.2.1]oct-8-yl)ethyl]phenyl}-5-oxo-4,5-dihydro-1H-1,2,4-triazol-3-yl]-N-(propan-2-yl)acetamide]: 14 nM.
Under `CC(C)NC(=O)Cc1nn(-c2ccc(CCN3CCOCC3)cn2)c(=O)n1-c1cccc(Cl)c1` [Example D-04, 2-[4-(3-chlorophenyl)-1-{5-[2-(morpholin-4-yl)ethyl]pyridin-2-yl}-5-oxo-4,5-dihydro-1H-1,2,4-triazol-3-yl]-N-(propan-2-yl)acetamide] stands 100 to 1000 nM.
`COc1cc(-n2c(CC(=O)NC(C)(C)C)nn(-c3ccc(CCN4CCOCC4)cc3)c2=O)ccc1F` [Example D-05, N-tert-butyl-2-[4-(4-fluoro-3-methoxyphenyl)-1-{4-[2-(morpholin-4-yl)ethyl]phenyl}-5-oxo-4,5-dihydro-1H-1,2,4-triazol-3-yl]acetamide] showed an IC50 of 2.5 nM.
The compound `COc1cccc(-n2c(CC(=O)NC(C)(C)C)nn(-c3ccc(CCN4CCOCC4)cc3)c2=O)c1` [Example D-06, N-tert-butyl-2-[4-(3-methoxyphenyl)-1-{4-[2-(morpholin-4-yl)ethyl]phenyl}-5-oxo-4,5-dihydro-1H-1,2,4-triazol-3-yl]acetamide] registered an IC50 of 4.6 nM.
In the case of `COc1cccc(-n2c(CC(=O)NC(C)(C)C)nn(-c3ccc(CCN4C5CCC4COC5)cc3)c2=O)c1` [Example D-07, N-tert-butyl-2-[4-(3-methoxyphenyl)-1-{4-[2-(3-oxa-8-azabicyclo[3.2.1]oct-8-yl)ethyl]phenyl}-5-oxo-4,5-dihydro-1H-1,2,4-triazol-3-yl]acetamide], the IC50 turned out to be 5.5 nM.
On to `COc1cccc(-n2c(CC(=O)NC(C)(C)C)nn(-c3ccc(CCN4CCOCC4)cn3)c2=O)c1` [Example D-08, N-tert-butyl-2-[4-(3-methoxyphenyl)-1-{5-[2-(morpholin-4-yl)ethyl]pyridin-2-yl}-5-oxo-4,5-dihydro-1H-1,2,4-triazol-3-yl]acetamide], for which the IC50 lay in the range of 10 to 100 nM.
As for `COc1cccc(-n2c(CC(=O)NC(C)(C)C)nn(-c3ccc(CCN4C5CCC4COC5)cn3)c2=O)c1` [Example D-09, N-tert-butyl-2-[4-(3-methoxyphenyl)-1-{5-[2-(3-oxa-8-azabicyclo[3.2.1]oct-8-yl)ethyl]pyridin-2-yl}-5-oxo-4,5-dihydro-1H-1,2,4-triazol-3-yl]acetamide], the IC50 fell in the range of 10 to 100 nM.
In turn, `COc1cc(-n2c(CC(=O)NC(C)(C)C)nn(-c3ccc(CCN4C5CCC4COC5)cc3)c2=O)ccc1F` [Example D-10, N-tert-butyl-2-[4-(4-fluoro-3-methoxyphenyl)-1-{4-[2-(3-oxa-8-azabicyclo[3.2.1]oct-8-yl)ethyl]phenyl}-5-oxo-4,5-dihydro-1H-1,2,4-triazol-3-yl]acetamide] yielded an IC50 of 7.1 nM. This lies in the single-digit nanomolar range.
Next, `COc1cc(-n2c(CC(=O)NC(C)(C)C)nn(-c3ccc(CCN4CCOCC4)cn3)c2=O)ccc1F` [Example D-11, N-tert-butyl-2-[4-(4-fluoro-3-methoxyphenyl)-1-{5-[2-(morpholin-4-yl)ethyl]pyridin-2-yl}-5-oxo-4,5-dihydro-1H-1,2,4-triazol-3-yl]acetamide]: 10 to 100 nM.
For `COc1cc(-n2c(CC(=O)NC(C)(C)C)nn(-c3ccc(CCN4C5CCC4COC5)cn3)c2=O)ccc1F` [Example D-12, N-tert-butyl-2-[4-(4-fluoro-3-methoxyphenyl)-1-{5-[2-(3-oxa-8-azabicyclo[3.2.1]oct-8-yl)ethyl]pyridin-2-yl}-5-oxo-4,5-dihydro-1H-1,2,4-triazol-3-yl]acetamide], the IC50 was found to be 7 nM.
